Tests used:
Format in all cases: in vivo
[1] = test system: wheat (Triticum aestivum); experiment: Test A postemergence; conditions: Triticum aestivum, post-emergence, 240 h, 125 g ai/ha, postemergence, visual injury vs untreated controls after approx. 10 d; 0 = no effect, 100 = complete control; read-out: Wheat plant response rating (0 to 100 scale)
Outline: (§1)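 Each rating is a visual injury score from 0 to 100 given about 10 d after treatment, judged against untreated controls kept alongside in the greenhouse. In loam soil–sand blend, seeds got a preemergence directed soil spray, while postemergence plants were 2 to 10 cm tall at spraying.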

[2] = test system: pigweed (Amaranthus retroflexus); experiment: Test A postemergence; conditions: Amaranthus retroflexus, post-emergence, 240 h, 125 g ai/ha, postemergence, visual injury vs untreated controls after approx. 10 d; 0 = no effect, 100 = complete control; read-out: Pigweed plant response rating (0 to 100 scale)
Outline: as §1

[3] = test system: barnyardgrass (Echinochloa crus-galli); experiment: Test A postemergence; conditions: Echinochloa crus-galli, post-emergence, 240 h; for pest or weed control at 125 g/ha: 125 g ai/ha, postemergence, visual injury vs untreated controls after approx. 10 d, 0 = no effect, 100 = complete control, read-out: Barnyardgrass plant response rating (0 to 100 scale); for pest or weed control at 31 g/ha: Postemergence, 31 g ai/ha, visual injury after approx. 10 d, 0 to 100 scale, 0 no effect, 100 complete control, read-out: Plant response rating, Barnyardgrass
Outline: as §1

[4] = test system: blackgrass (Alopecurus myosuroides); experiment: Test A postemergence; conditions: Alopecurus myosuroides, post-emergence, 240 h; for pest or weed control at 125 g/ha: 125 g ai/ha, postemergence, visual injury vs untreated controls after approx. 10 d, 0 = no effect, 100 = complete control, read-out: Blackgrass plant response rating (0 to 100 scale); for pest or weed control at 31 g/ha: Postemergence, 31 g ai/ha, visual injury after approx. 10 d, 0 to 100 scale, 0 no effect, 100 complete control, read-out: Plant response rating, Blackgrass
Outline: as §1

[5] = test system: Kochia (Kochia scoparia); experiment: Test A postemergence; conditions: Bassia scoparia, post-emergence, 240 h; for pest or weed control at 125 g/ha: 125 g ai/ha, postemergence, visual injury vs untreated controls after approx. 10 d, 0 = no effect, 100 = complete control, read-out: Kochia plant response rating (0 to 100 scale); for pest or weed control at 31 g/ha: Postemergence, 31 g ai/ha, visual injury after approx. 10 d, 0 to 100 scale, 0 no effect, 100 complete control, read-out: Plant response rating, Kochia
Outline: as §1

[6] = test system: ryegrass, Italian (Italian ryegrass, Lolium multiflorum); experiment: Test A postemergence; conditions: Lolium multiflorum, post-emergence, 240 h, 125 g ai/ha, postemergence, visual injury vs untreated controls after approx. 10 d; 0 = no effect, 100 = complete control; read-out: Ryegrass, Italian plant response rating (0 to 100 scale)
Outline: as §1

[7] = test system: ragweed (common ragweed, Ambrosia elatior); experiment: Test A postemergence; conditions: Ambrosia artemisiifolia, post-emergence, 240 h, 125 g ai/ha, postemergence, visual injury vs untreated controls after approx. 10 d; 0 = no effect, 100 = complete control; read-out: Ragweed plant response rating (0 to 100 scale)
Outline: as §1

[8] = test system: giant foxtail (Setaria faberii); experiment: Test A postemergence; conditions: Setaria faberi, post-emergence, 240 h; for pest or weed control at 125 g/ha: 125 g ai/ha, postemergence, visual injury vs untreated controls after approx. 10 d, 0 = no effect, 100 = complete control, read-out: Foxtail, Giant plant response rating (0 to 100 scale); for pest or weed control at 31 g/ha: Postemergence, 31 g ai/ha, visual injury after approx. 10 d, 0 to 100 scale, 0 no effect, 100 complete control, read-out: Plant response rating, Foxtail, Giant
Outline: as §1

[9] = test system: corn (Zea mays); experiment: Test A postemergence; conditions: Zea mays, post-emergence, 240 h; for plant injury at 125 g/ha: 125 g ai/ha, postemergence, visual injury vs untreated controls after approx. 10 d, 0 = no effect, 100 = complete control, read-out: Corn plant response rating (0 to 100 scale); for Corn plant response rating (crop injury, 0 = no effect, 100 = complete kill) at 31 g/ha: Postemergence, 31 g ai/ha, visual injury after approx. 10 d, 0 to 100 scale, 100 complete control
Outline: as §1

[10] = test system: Galium (catchweed bedstraw, Galium aparine); experiment: Test A postemergence; conditions: Galium, post-emergence, 240 h; for pest or weed control at 125 g/ha: 125 g ai/ha, postemergence, visual injury vs untreated controls after approx. 10 d, 0 = no effect, 100 = complete control, read-out: Galium plant response rating (0 to 100 scale); for pest or weed control at 31 g/ha: Postemergence, 31 g ai/ha, visual injury after approx. 10 d, 0 to 100 scale, 0 no effect, 100 complete control, read-out: Plant response rating, Galium
Outline: as §1

[11] = test system: ducksalad (Heteranthera limosa); experiment: Test B flooded paddy test; conditions: Heteranthera limosa, 250 g ai/ha, Flood; 0 to 100 scale where 0 is no effect and 100 is complete control; read-out: Ducksalad plant response rating
Outline: (§2)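 Percent control, visually estimated after 13–15 d in the greenhouse on a 0–100 basis, compares treated pots with untreated ones; compound was put into paddy water 3 cm above the soil when plants had two leaves.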

[12] = test system: sedge, umbrella (small-flower umbrella sedge, Cyperus difformis); experiment: Test B flooded paddy test; conditions: Cyperus difformis, 250 g ai/ha, Flood; 0 to 100 scale where 0 is no effect and 100 is complete control; read-out: Sedge, Umbrella plant response rating
Outline: as §2

[13] = test system: barnyardgrass (Echinochloa crus-galli); experiment: Test B flooded paddy test; conditions: Echinochloa crus-galli, 250 g ai/ha, Flood; 0 to 100 scale where 0 is no effect and 100 is complete control; read-out: Barnyardgrass plant response rating
Outline: as §2

[14] = test system: rice (Oryra sativa); experiment: Test B flooded paddy test; conditions: Oryza sativa, 250 g ai/ha, Flood; 0 to 100 scale where 0 is no effect and 100 is complete control; read-out: Rice plant response rating
Outline: as §2

[15] = test system: pigweed (Amaranthus retroflexus); experiment: Test A preemergence; conditions: Amaranthus retroflexus, pre-emergence, 240 h, 0 to 100 scale where 0 is no effect and 100 is complete control, read-out: Pigweed plant response rating; for pest or weed control at 31 g/ha: 31 g ai/ha, Preemergence; for pest or weed control at 125 g/ha: 125 g ai/ha, preemergence
[16] = test system: barnyardgrass (Echinochloa crus-galli); experiment: Test A preemergence; conditions: Echinochloa crus-galli, pre-emergence, 240 h, 0 to 100 scale where 0 is no effect and 100 is complete control, read-out: Barnyardgrass plant response rating; for pest or weed control at 31 g/ha: 31 g ai/ha, Preemergence; for pest or weed control at 125 g/ha: 125 g ai/ha, preemergence
Outline: as §1

[17] = test system: Kochia (Kochia scoparia); experiment: Test A preemergence; conditions: Bassia scoparia, pre-emergence, 240 h, 0 to 100 scale where 0 is no effect and 100 is complete control, read-out: Kochia plant response rating; for pest or weed control at 31 g/ha: 31 g ai/ha, Preemergence; for pest or weed control at 125 g/ha: 125 g ai/ha, preemergence
Outline: as §1

[18] = test system: ryegrass, Italian (Italian ryegrass, Lolium multiflorum); experiment: Test A preemergence; conditions: Lolium multiflorum, pre-emergence, 240 h, 0 to 100 scale where 0 is no effect and 100 is complete control, read-out: Ryegrass, Italian plant response rating; for pest or weed control at 31 g/ha: 31 g ai/ha, Preemergence; for pest or weed control at 125 g/ha: 125 g ai/ha, preemergence
Outline: as §1

[19] = test system: ragweed (common ragweed, Ambrosia elatior); experiment: Test A preemergence; conditions: Ambrosia artemisiifolia, pre-emergence, 240 h, 0 to 100 scale where 0 is no effect and 100 is complete control, read-out: Ragweed plant response rating; for pest or weed control at 31 g/ha: 31 g ai/ha, Preemergence; for pest or weed control at 125 g/ha: 125 g ai/ha, preemergence
Outline: as §1

[20] = test system: giant foxtail (Setaria faberii); experiment: Test A preemergence; conditions: Setaria faberi, pre-emergence, 240 h, 0 to 100 scale where 0 is no effect and 100 is complete control, read-out: Foxtail, Giant plant response rating; for pest or weed control at 31 g/ha: 31 g ai/ha, Preemergence; for pest or weed control at 125 g/ha: 125 g ai/ha, preemergence
Outline: as §1

[21] = visual injury rating, approximately 10 d

CN1C[C@H](c2cc(F)cc(C(F)(F)F)c2)[C@@H](C(=O)Nc2cccnc2F)C1=O [Compound 1176]
plant injury at 125 g/ha [1]: 90% | pest or weed control at 125 g/ha [2]: 0% | pest or weed control at 125 g/ha [3]: 90% | pest or weed control at 31 g/ha [3]: 80% | pest or weed control at 125 g/ha [4]: 70% | pest or weed control at 31 g/ha [4]: 50% | pest or weed control at 125 g/ha [5]: 40% | pest or weed control at 31 g/ha [5]: 0% | pest or weed control at 125 g/ha [6]: 30% | pest or weed control at 125 g/ha [7]: 30% | pest or weed control at 125 g/ha [8]: 80% | pest or weed control at 31 g/ha [8]: 80% | plant injury at 125 g/ha [9]: 90% | Corn plant response rating (crop injury, 0 = no effect, 100 = complete kill) at 31 g/ha [9]: 50% | pest or weed control at 125 g/ha [10]: 50% | pest or weed control at 31 g/ha [10]: 30% | pest or weed control at 250 g/ha [11]: 95% | pest or weed control at 250 g/ha [12]: 0% | pest or weed control at 250 g/ha [13]: 95% | pest or weed control at 250 g/ha [14]: 0% | pest or weed control at 31 g/ha [15]: 0% | pest or weed control at 125 g/ha ([15]; approx. 10 d): 40% | pest or weed control at 31 g/ha [16]: 90% | pest or weed control at 125 g/ha ([16]; approx. 10 d): 90% | pest or weed control at 31 g/ha [17]: 0% | pest or weed control at 125 g/ha ([17]; approx. 10 d): 40% | pest or weed control at 31 g/ha [18]: 40% | pest or weed control at 125 g/ha ([18]; approx. 10 d): 50% | pest or weed control at 31 g/ha [19]: 0% | pest or weed control at 125 g/ha ([19]; approx. 10 d): 0% | pest or weed control at 31 g/ha [20]: 90% | pest or weed control at 125 g/ha ([20]; approx. 10 d): 90%

COc1ccc(C(F)(F)F)cc1[C@H]1CN(C)C(=O)[C@@H]1C(=O)Nc1ccccc1F [Compound 1183]
plant injury at 125 g/ha [1]: 50% | pest or weed control at 125 g/ha [2]: 0% | pest or weed control at 125 g/ha [3]: 90% | pest or weed control at 31 g/ha [3]: 80% | pest or weed control at 125 g/ha [4]: 50% | pest or weed control at 31 g/ha [4]: 0% | pest or weed control at 125 g/ha [5]: 0% | pest or weed control at 31 g/ha [5]: 0% | pest or weed control at 125 g/ha [6]: 50% | pest or weed control at 125 g/ha [7]: 0% | pest or weed control at 125 g/ha [8]: 80% | pest or weed control at 31 g/ha [8]: 70% | plant injury at 125 g/ha [9]: 60% | Corn plant response rating (crop injury, 0 = no effect, 100 = complete kill) at 31 g/ha [9]: 30% | pest or weed control at 125 g/ha [10]: 0% | pest or weed control at 31 g/ha [10]: 0% | pest or weed control at 250 g/ha [11]: 95% | pest or weed control at 250 g/ha [12]: 0% | pest or weed control at 250 g/ha [13]: 95% | pest or weed control at 250 g/ha [14]: 10% | pest or weed control at 31 g/ha [15]: 0% | pest or weed control at 125 g/ha [15, 21]: 0% | pest or weed control at 31 g/ha [16]: 90% | pest or weed control at 125 g/ha [16, 21]: 90% | pest or weed control at 31 g/ha [17]: 0% | pest or weed control at 125 g/ha [17, 21]: 0% | pest or weed control at 31 g/ha [18]: 20% | pest or weed control at 125 g/ha [18, 21]: 50% | pest or weed control at 31 g/ha [19]: 0% | pest or weed control at 125 g/ha [19, 21]: 0% | pest or weed control at 31 g/ha [20]: 80% | pest or weed control at 125 g/ha [20, 21]: 90%

From patent US12077503B2, “Substituted cyclic amides and their use as herbicides” (FMC CORPORATION, priority 2015, dated 2024)
